Experimental data reported in the Kinase Knowledgebase extract (Sharma et al. 2016).

Target: EGFR (human) (UniProt P00533)
Assay: not given

Chain of EGFR (human) (P00533 whole entry, looked up): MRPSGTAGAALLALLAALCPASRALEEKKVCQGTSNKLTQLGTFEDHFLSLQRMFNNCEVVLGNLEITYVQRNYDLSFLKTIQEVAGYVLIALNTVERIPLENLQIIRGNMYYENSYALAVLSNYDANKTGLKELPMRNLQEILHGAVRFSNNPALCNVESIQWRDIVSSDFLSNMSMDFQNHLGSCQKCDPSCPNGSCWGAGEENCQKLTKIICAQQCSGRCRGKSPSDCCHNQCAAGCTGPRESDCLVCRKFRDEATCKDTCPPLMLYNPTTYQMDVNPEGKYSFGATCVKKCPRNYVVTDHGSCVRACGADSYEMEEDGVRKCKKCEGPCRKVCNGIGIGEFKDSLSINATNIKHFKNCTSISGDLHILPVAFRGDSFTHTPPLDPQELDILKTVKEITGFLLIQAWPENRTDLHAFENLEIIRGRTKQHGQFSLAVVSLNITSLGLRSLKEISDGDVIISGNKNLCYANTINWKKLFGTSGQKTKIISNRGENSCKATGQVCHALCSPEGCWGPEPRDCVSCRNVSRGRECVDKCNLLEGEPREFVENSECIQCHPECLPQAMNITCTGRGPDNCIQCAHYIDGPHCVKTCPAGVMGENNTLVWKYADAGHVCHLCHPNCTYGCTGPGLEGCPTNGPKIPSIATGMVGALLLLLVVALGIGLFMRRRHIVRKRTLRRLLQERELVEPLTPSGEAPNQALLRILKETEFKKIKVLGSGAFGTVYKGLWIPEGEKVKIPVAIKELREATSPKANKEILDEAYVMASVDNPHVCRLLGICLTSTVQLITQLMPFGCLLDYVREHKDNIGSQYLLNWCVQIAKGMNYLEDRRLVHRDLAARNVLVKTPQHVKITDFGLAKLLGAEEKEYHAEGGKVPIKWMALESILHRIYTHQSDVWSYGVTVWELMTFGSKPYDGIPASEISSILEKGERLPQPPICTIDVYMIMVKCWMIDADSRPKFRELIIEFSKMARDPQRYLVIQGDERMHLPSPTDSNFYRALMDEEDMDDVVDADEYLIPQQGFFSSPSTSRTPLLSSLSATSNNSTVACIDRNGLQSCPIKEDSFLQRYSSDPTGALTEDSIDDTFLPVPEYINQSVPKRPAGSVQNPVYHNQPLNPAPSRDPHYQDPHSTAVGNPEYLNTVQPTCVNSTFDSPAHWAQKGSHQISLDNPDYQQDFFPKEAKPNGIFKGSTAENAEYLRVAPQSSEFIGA

Structure (SMILES)	IC50
COc1cc2ncnc(Nc3ccc(F)c(Cl)c3)c2cc1OCCCCC(=O)NO	≤ 100 nM
COc1cc2ncnc(Nc3ccc(F)c(Cl)c3)c2cc1SCCCCC(=O)NO	≤ 100 nM
COc1cc2ncnc(Nc3ccc(F)c(Cl)c3)c2cc1NC(=O)CCCC(=O)NO	≤ 100 nM
C#Cc1cccc(Nc2ncnc3cc(OC)c(OCCCCCC(=O)NO)cc23)c1	≤ 100 nM
C#Cc1cccc(Nc2ncnc3cc(OC)c(NC(=O)CCCC(=O)NO)cc23)c1	≤ 100 nM
COCCOc1cc2ncnc(Nc3ccc(F)c(Cl)c3)c2cc1OCCCCCCC(=O)NO	≤ 100 nM
O=C(CCCCCNCc1ccc(-c2ccc3ncnc(Nc4ccc(OCc5cccc(F)c5)c(Cl)c4)c3c2)o1)NO	≤ 100 nM
C#Cc1cccc(Nc2ncnc3cc(OCCCCCCC(=O)NO)c(OC)cc23)c1	≤ 100 nM
C#Cc1cccc(Nc2ncnc3cc(OC)c(OCCCC(=O)NO)cc23)c1	≤ 100 nM
C#Cc1cc(Nc2ncnc3cc(OC)c(OCCCCCCC(=O)NO)cc23)ccc1O	≤ 100 nM
COCCOc1cc2ncnc(Nc3ccc(F)c(Cl)c3)c2cc1NC(=O)CCCCC(=O)NO	≤ 100 nM
COCCOc1cc2ncnc(Nc3ccc(F)c(Cl)c3)c2cc1NC(=O)CCCC(=O)NO	≤ 100 nM
C#Cc1cccc(Nc2ncnc3cc(OC)c(OCC(=O)NO)cc23)c1	≤ 100 nM
C[C@@H](Nc1ncnc2[nH]c(-c3ccc(NC(=O)CCNCCCCCCC(=O)NO)cc3)cc12)c1ccccc1	≤ 100 nM
O=C(CCCCOc1ccc2ncnc(Nc3ccc(F)c(Cl)c3)c2c1)NO	≤ 100 nM
C#Cc1cccc(Nc2ncnc3cc(OCCCCCCC(=O)NO)c(OCCOC)cc23)c1	≤ 100 nM
C#Cc1cccc(Nc2ncnc3cc(OCCOC)c(OCCCCCCC(=O)NO)cc23)c1	≤ 100 nM
C#Cc1cccc(Nc2ncnc3cc(OC)c(OCCC(=O)NO)cc23)c1	≤ 100 nM
COc1cc2ncnc(Nc3ccc(F)c(Cl)c3)c2cc1OCC(=O)NO	≤ 100 nM
O=C(COc1ccc2ncnc(Nc3ccc(F)c(Cl)c3)c2c1)NO	≤ 100 nM
COc1cc2ncnc(Nc3ccc(F)c(Cl)c3)c2cc1NC(=O)CCCCCCC(=O)NO	≤ 100 nM

Second part, the molecule after the results:

IC50	Structure (SMILES)
≤ 100 nM	COc1cc2ncnc(Nc3ccc(OCc4cccc(F)c4)c(Cl)c3)c2cc1OCCCCCCC(=O)NO
≤ 100 nM	COc1cc2ncnc(Nc3ccc(F)c(Cl)c3)c2cc1OCCCC(=O)NO
≤ 100 nM	C[C@@H](Nc1ncnc2[nH]c(-c3ccc(NC(=O)CCNCCCCCC(=O)NO)cc3)cc12)c1ccccc1
≤ 100 nM	O=C(CCCCCCOc1ccc2ncnc(Nc3ccc(OCc4cccc(F)c4)c(Cl)c3)c2c1)NO
≤ 100 nM	O=C(CCCCCCOc1ccc2ncnc(Nc3ccc(F)c(Cl)c3)c2c1)NO
≤ 100 nM	COc1cc2ncnc(Nc3ccc(F)c(Cl)c3)c2cc1OCCC(=O)NO
≤ 100 nM	COc1cc2ncnc(Nc3ccc(F)c(Cl)c3)c2cc1OCCCCCC(=O)NO
≤ 100 nM	COc1cc2ncnc(Nc3ccc(F)c(Cl)c3)c2cc1CCCCCC(=O)NO
≤ 100 nM	C#Cc1cccc(Nc2ncnc3cc(OC)c(NC(=O)CCCCC(=O)NO)cc23)c1
≤ 100 nM	C#Cc1cccc(Nc2ncnc3ccc(OCCCCC(=O)NO)cc23)c1
≤ 100 nM	COc1cc2ncnc(Nc3ccc(F)c(Cl)c3)c2cc1OCCOc1ccc(C(=O)NO)cc1
≤ 100 nM	O=C(CCCCCOc1ccc2ncnc(Nc3ccc(F)c(Cl)c3)c2c1)NO
≤ 100 nM	O=C(CCOc1ccc2ncnc(Nc3ccc(F)c(Cl)c3)c2c1)NO
≤ 100 nM	C#Cc1cccc(Nc2ncnc3cc(OC)c(NC(=O)CCCCCCC(=O)NO)cc23)c1
≤ 100 nM	COCCOc1cc2c(Nc3ccc(F)c(Cl)c3)ncnc2cc1OCCCCCCC(=O)NO
≤ 100 nM	COCCOc1cc2ncnc(Nc3ccc(F)c(Cl)c3)c2cc1NC(=O)CCCCCCC(=O)NO
≤ 100 nM	COc1cc2ncnc(Nc3ccc(F)c(Cl)c3)c2cc1SCCCCCCC(=O)NO
≤ 100 nM	C#Cc1cccc(Nc2ncnc3ccc(OCC(=O)NO)cc23)c1

Target: CDK2 (human) (UniProt P24941)
Assay: Enzyme Assay

IC50	Structure (SMILES)
≤ 100 nM	CC(C)(C)c1cnc(CSc2cnc(NC(=O)CCCC(=O)NO)s2)o1
≤ 100 nM	CC(C)(C)c1cnc(CSc2cnc(NC(=O)CCCCC(=O)NO)s2)o1
≤ 100 nM	CC(C)(C)c1cnc(CSc2cnc(NC(=O)CCCCCCC(=O)NO)s2)o1
≤ 100 nM	CC(C)(C)c1cnc(CSc2cnc(NC(=O)CCCCCC(=O)NO)s2)o1
≤ 100 nM	CC(C)(C)c1cnc(CSc2cnc(NC(=O)Cc3ccc(OCCCC(=O)NO)cc3)s2)o1
≤ 100 nM	CC(C)(C)c1cnc(CSc2cnc(NC(=O)Cc3ccc(OCCCCC(=O)NO)cc3)s2)o1
